Test results reported in ChEMBL document CHEMBL1140819, “Protected aminooxyprolines for expedited library synthesis: application to Tsg101-directed proline-oxime containing peptides” (Bioorg Med Chem Lett, 2008).
*1 amine or outer side, *2 acyl side, *3 side chain or, on linkers, in order; H or OH if unused. Where a SMILES comes first, the peptide text is derived from it. [ ]: non-standard residue; d: D form. The star is where a group is joined. ξ: configuration not given here. Fluorescein(5-NHCS) = O=C1OC2(c3ccc(O)cc3Oc3cc(O)ccc32)c2cc(NC(=S)*)ccc21; X47 = O=C([C@@H]1C[C@@H](O/N=C\c2ccc([N+](=O)[O-])o2)CN1[*:1])[*:2]; X48 = O=C([C@@H]1C[C@@H](O/N=C\c2c(F)c(F)c(F)c(F)c2F)CN1[*:1])[*:2]; X23 = O=C([C@@H]1[C@@H](O/N=C\c2ccc(OCc3ccccc3)cc2)CCN1[*:1])[*:2]; X7 = O=C([C@@H]1[C@@H](O/N=C\c2c(F)c(F)c(F)c(F)c2F)CCN1[*:1])[*:2]; X9 = O=C([C@@H]1C[C@H](O/N=C\c2ccc([N+](=O)[O-])cc2)CN1[*:1])[*:2]; X5 = CC(/C=N\O[C@@H]1C[C@@H](C(=O)[*:2])N([*:1])C1)=C\c1ccccc1; X17 = COc1ccc(/C=N\O[C@@H]2C[C@@H](C(=O)[*:2])N([*:1])C2)cc1O; X36 = CC(/C=N\O[C@H]1CCN([*:1])[C@@H]1C(=O)[*:2])=C\c1ccccc1; X16 = COc1ccc(/C=N\O[C@H]2CCN([*:1])[C@@H]2C(=O)[*:2])cc1O; X37 = O=C([C@@H]1C[C@@H](O/N=C\c2ccc(CO)o2)CN1[*:1])[*:2]; X14 = CCCCCCCC/C=N\O[C@@H]1C[C@@H](C(=O)[*:2])N([*:1])C1; X42 = O=C([C@@H]1[C@@H](O/N=C\CCc2ccccc2)CCN1[*:1])[*:2]; X24 = O=C([C@@H]1[C@@H](O/N=C\c2ccccc2)CCN1[*:1])[*:2]; X44 = O=C([C@@H]1[C@@H](O/N=C\c2ccoc2)CCN1[*:1])[*:2]; X6 = O=C([C@@H]1C[C@@H](O/N=C\c2ccoc2)CN1[*:1])[*:2]; X2 = CCCCC/C=N\O[C@H]1C[C@@H](C(=O)[*:2])N([*:1])C1; ξPip = O=C(O)C1CCCCN1; Ava = NCCCCC(=O)O

molecular target: T1, Tumor susceptibility gene 101 protein (Homo sapiens, UniProt Q99816); assay: Binding affinity to Tsg101
T1 sequence (Q99816 whole entry): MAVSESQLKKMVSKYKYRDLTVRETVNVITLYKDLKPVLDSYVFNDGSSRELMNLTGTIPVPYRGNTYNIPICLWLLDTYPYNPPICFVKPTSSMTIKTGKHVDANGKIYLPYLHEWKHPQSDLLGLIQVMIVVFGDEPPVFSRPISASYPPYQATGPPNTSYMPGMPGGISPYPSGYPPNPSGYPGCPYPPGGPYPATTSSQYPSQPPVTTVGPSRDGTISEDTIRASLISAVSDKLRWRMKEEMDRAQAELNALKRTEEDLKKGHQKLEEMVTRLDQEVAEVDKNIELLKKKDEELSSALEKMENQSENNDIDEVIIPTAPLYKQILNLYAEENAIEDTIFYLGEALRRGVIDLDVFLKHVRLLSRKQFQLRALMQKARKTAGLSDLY

| SMILES | IC50 [µM] |
| --- | --- |
| CCCCCCCC/C=N\O[C@@H]1C[C@@H](C(=O)N[C@@H](CCC(=O)O)C(=O)N[C@@H](CCC(=O)O)C(N)=O)N(C(=O)C2CCCCN2C(=O)[C@H](C)NC(=O)[C@@H](NC(=O)[C@@H]2CCCN2C(=O)[C@H](CCC(=O)O)NC(=O)[C@@H]2CCCN2C(=O)CCCCNC(=S)Nc2ccc3c(c2)C2(OC3=O)c3ccc(O)cc3Oc3cc(O)ccc32)[C@@H](C)O)C1 (stereo partly specified) ({Fluorescein(5-NHCS)-Ava}-PEPTA[ξPip][X14]EE-NH2) | 54 |
| CC(/C=N\O[C@@H]1C[C@@H](C(=O)N[C@@H](CCC(=O)O)C(=O)N[C@@H](CCC(=O)O)C(N)=O)N(C(=O)C2CCCCN2C(=O)[C@H](C)NC(=O)[C@@H](NC(=O)[C@@H]2CCCN2C(=O)[C@H](CCC(=O)O)NC(=O)[C@@H]2CCCN2C(=O)CCCCNC(=S)Nc2ccc3c(c2)C2(OC3=O)c3ccc(O)cc3Oc3cc(O)ccc32)[C@@H](C)O)C1)=C\c1ccccc1 (stereo partly specified) ({Fluorescein(5-NHCS)-Ava}-PEPTA[ξPip][X5]EE-NH2) | 13 |
| C[C@H](NC(=O)[C@@H](NC(=O)[C@@H]1CCCN1C(=O)[C@H](CCC(=O)O)NC(=O)[C@@H]1CCCN1C(=O)CCCCNC(=S)Nc1ccc2c(c1)C1(OC2=O)c2ccc(O)cc2Oc2cc(O)ccc21)[C@@H](C)O)C(=O)N1CCCCC1C(=O)N1C[C@H](O/N=C\c2c(F)c(F)c(F)c(F)c2F)C[C@H]1C(=O)N[C@@H](CCC(=O)O)C(=O)N[C@@H](CCC(=O)O)C(N)=O (stereo partly specified) ({Fluorescein(5-NHCS)-Ava}-PEPTA[ξPip][X48]EE-NH2) | 32 |
| C[C@H](NC(=O)[C@@H](NC(=O)[C@@H]1CCCN1C(=O)[C@H](CCC(=O)O)NC(=O)[C@@H]1CCCN1C(=O)CCCCNC(=S)Nc1ccc2c(c1)C1(OC2=O)c2ccc(O)cc2Oc2cc(O)ccc21)[C@@H](C)O)C(=O)N1CCCCC1C(=O)N1C[C@H](O/N=C\c2ccc([N+](=O)[O-])o2)C[C@H]1C(=O)N[C@@H](CCC(=O)O)C(=O)N[C@@H](CCC(=O)O)C(N)=O (stereo partly specified) ({Fluorescein(5-NHCS)-Ava}-PEPTA[ξPip][X47]EE-NH2) | 12 |
| C[C@H](NC(=O)[C@@H](NC(=O)[C@@H]1CCCN1C(=O)[C@H](CCC(=O)O)NC(=O)[C@@H]1CCCN1C(=O)CCCCNC(=S)Nc1ccc2c(c1)C1(OC2=O)c2ccc(O)cc2Oc2cc(O)ccc21)[C@@H](C)O)C(=O)N1CCCCC1C(=O)N1CC[C@H](O/N=C\CCc2ccccc2)[C@H]1C(=O)N[C@@H](CCC(=O)O)C(=O)N[C@@H](CCC(=O)O)C(N)=O (stereo partly specified) ({Fluorescein(5-NHCS)-Ava}-PEPTA[ξPip][X42]EE-NH2) | 20 |
| C[C@H](NC(=O)[C@@H](NC(=O)[C@@H]1CCCN1C(=O)[C@H](CCC(=O)O)NC(=O)[C@@H]1CCCN1C(=O)CCCCNC(=S)Nc1ccc2c(c1)C1(OC2=O)c2ccc(O)cc2Oc2cc(O)ccc21)[C@@H](C)O)C(=O)N1CCCCC1C(=O)N1C[C@@H](O/N=C\c2ccc([N+](=O)[O-])cc2)C[C@H]1C(=O)N[C@@H](CCC(=O)O)C(=O)N[C@@H](CCC(=O)O)C(N)=O (stereo partly specified) ({Fluorescein(5-NHCS)-Ava}-PEPTA[ξPip][X9]EE-NH2) | 91 |
| COc1ccc(/C=N\O[C@H]2CCN(C(=O)C3CCCCN3C(=O)[C@H](C)NC(=O)[C@@H](NC(=O)[C@@H]3CCCN3C(=O)[C@H](CCC(=O)O)NC(=O)[C@@H]3CCCN3C(=O)CCCCNC(=S)Nc3ccc4c(c3)C3(OC4=O)c4ccc(O)cc4Oc4cc(O)ccc43)[C@@H](C)O)[C@@H]2C(=O)N[C@@H](CCC(=O)O)C(=O)N[C@@H](CCC(=O)O)C(N)=O)cc1O (stereo partly specified) ({Fluorescein(5-NHCS)-Ava}-PEPTA[ξPip][X16]EE-NH2) | 13 |
| C[C@H](NC(=O)[C@@H](NC(=O)[C@@H]1CCCN1C(=O)[C@H](CCC(=O)O)NC(=O)[C@@H]1CCCN1C(=O)CCCCNC(=S)Nc1ccc2c(c1)C1(OC2=O)c2ccc(O)cc2Oc2cc(O)ccc21)[C@@H](C)O)C(=O)N1CCCCC1C(=O)N1C[C@H](O/N=C\c2ccoc2)C[C@H]1C(=O)N[C@@H](CCC(=O)O)C(=O)N[C@@H](CCC(=O)O)C(N)=O (stereo partly specified) ({Fluorescein(5-NHCS)-Ava}-PEPTA[ξPip][X6]EE-NH2) | 30 |
| CCCCC/C=N\O[C@H]1C[C@@H](C(=O)N[C@@H](CCC(=O)O)C(=O)N[C@@H](CCC(=O)O)C(N)=O)N(C(=O)C2CCCCN2C(=O)[C@H](C)NC(=O)[C@@H](NC(=O)[C@@H]2CCCN2C(=O)[C@H](CCC(=O)O)NC(=O)[C@@H]2CCCN2C(=O)CCCCNC(=S)Nc2ccc3c(c2)C2(OC3=O)c3ccc(O)cc3Oc3cc(O)ccc32)[C@@H](C)O)C1 (stereo partly specified) ({Fluorescein(5-NHCS)-Ava}-PEPTA[ξPip][X2]EE-NH2) | 42 |
| CC(/C=N\O[C@H]1CCN(C(=O)C2CCCCN2C(=O)[C@H](C)NC(=O)[C@@H](NC(=O)[C@@H]2CCCN2C(=O)[C@H](CCC(=O)O)NC(=O)[C@@H]2CCCN2C(=O)CCCCNC(=S)Nc2ccc3c(c2)C2(OC3=O)c3ccc(O)cc3Oc3cc(O)ccc32)[C@@H](C)O)[C@@H]1C(=O)N[C@@H](CCC(=O)O)C(=O)N[C@@H](CCC(=O)O)C(N)=O)=C\c1ccccc1 (stereo partly specified) ({Fluorescein(5-NHCS)-Ava}-PEPTA[ξPip][X36]EE-NH2) | 12 |
| C[C@H](NC(=O)[C@@H](NC(=O)[C@@H]1CCCN1C(=O)[C@H](CCC(=O)O)NC(=O)[C@@H]1CCCN1C(=O)CCCCNC(=S)Nc1ccc2c(c1)C1(OC2=O)c2ccc(O)cc2Oc2cc(O)ccc21)[C@@H](C)O)C(=O)N1CCCCC1C(=O)N1C[C@H](O/N=C\c2ccc(CO)o2)C[C@H]1C(=O)N[C@@H](CCC(=O)O)C(=O)N[C@@H](CCC(=O)O)C(N)=O (stereo partly specified) ({Fluorescein(5-NHCS)-Ava}-PEPTA[ξPip][X37]EE-NH2) | 26 |
| COc1ccc(/C=N\O[C@@H]2C[C@@H](C(=O)N[C@@H](CCC(=O)O)C(=O)N[C@@H](CCC(=O)O)C(N)=O)N(C(=O)C3CCCCN3C(=O)[C@H](C)NC(=O)[C@@H](NC(=O)[C@@H]3CCCN3C(=O)[C@H](CCC(=O)O)NC(=O)[C@@H]3CCCN3C(=O)CCCCNC(=S)Nc3ccc4c(c3)C3(OC4=O)c4ccc(O)cc4Oc4cc(O)ccc43)[C@@H](C)O)C2)cc1O (stereo partly specified) ({Fluorescein(5-NHCS)-Ava}-PEPTA[ξPip][X17]EE-NH2) | 23 |
| C[C@H](NC(=O)[C@@H](NC(=O)[C@@H]1CCCN1C(=O)[C@H](CCC(=O)O)NC(=O)[C@@H]1CCCN1C(=O)CCCCNC(=S)Nc1ccc2c(c1)C1(OC2=O)c2ccc(O)cc2Oc2cc(O)ccc21)[C@@H](C)O)C(=O)N1CCCCC1C(=O)N1CC[C@H](O/N=C\c2ccccc2)[C@H]1C(=O)N[C@@H](CCC(=O)O)C(=O)N[C@@H](CCC(=O)O)C(N)=O (stereo partly specified) ({Fluorescein(5-NHCS)-Ava}-PEPTA[ξPip][X24]EE-NH2) | 15 |
| C[C@H](NC(=O)[C@@H](NC(=O)[C@@H]1CCCN1C(=O)[C@H](CCC(=O)O)NC(=O)[C@@H]1CCCN1C(=O)CCCCNC(=S)Nc1ccc2c(c1)C1(OC2=O)c2ccc(O)cc2Oc2cc(O)ccc21)[C@@H](C)O)C(=O)N1CCCCC1C(=O)N1CC[C@H](O/N=C\c2ccoc2)[C@H]1C(=O)N[C@@H](CCC(=O)O)C(=O)N[C@@H](CCC(=O)O)C(N)=O (stereo partly specified) ({Fluorescein(5-NHCS)-Ava}-PEPTA[ξPip][X44]EE-NH2) | 20 |
| C[C@H](NC(=O)[C@@H](NC(=O)[C@@H]1CCCN1C(=O)[C@H](CCC(=O)O)NC(=O)[C@@H]1CCCN1C(=O)CCCCNC(=S)Nc1ccc2c(c1)C1(OC2=O)c2ccc(O)cc2Oc2cc(O)ccc21)[C@@H](C)O)C(=O)N1CCCCC1C(=O)N1CC[C@H](O/N=C\c2c(F)c(F)c(F)c(F)c2F)[C@H]1C(=O)N[C@@H](CCC(=O)O)C(=O)N[C@@H](CCC(=O)O)C(N)=O (stereo partly specified) ({Fluorescein(5-NHCS)-Ava}-PEPTA[ξPip][X7]EE-NH2) | 19 |
| C[C@H](NC(=O)[C@@H](NC(=O)[C@@H]1CCCN1C(=O)[C@H](CCC(=O)O)NC(=O)[C@@H]1CCCN1C(=O)CCCCNC(=S)Nc1ccc2c(c1)C1(OC2=O)c2ccc(O)cc2Oc2cc(O)ccc21)[C@@H](C)O)C(=O)N1CCCCC1C(=O)N1CC[C@H](O/N=C\c2ccc(OCc3ccccc3)cc2)[C@H]1C(=O)N[C@@H](CCC(=O)O)C(=O)N[C@@H](CCC(=O)O)C(N)=O (stereo partly specified) ({Fluorescein(5-NHCS)-Ava}-PEPTA[ξPip][X23]EE-NH2) | 18 |
